Source: patent publication US9464084B2, “P2X7 modulators” (Janssen Pharmaceutica NV, priority 2013, dated 2016)

Tests used:
[1] = target: T1, P2X7 (Homo sapiens (Human), UniProt Q99572); test: P2X7 antagonism in human PBMCs (LPS + Bz-ATP induced IL-1β release, ELISA); format: cell-based; conditions: LPS 30 ng/ml, Bz-ATP 0.5 mM; for PBMC 10 μM (% control): compound 10 μM; for PBMC 1 μM (% control): compound 1 μM;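 on all read-outs here: PBMCs from donor human blood, with a further 1.5 h incubation of the cells in the assay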
T1 sequence (Q99572 whole entry): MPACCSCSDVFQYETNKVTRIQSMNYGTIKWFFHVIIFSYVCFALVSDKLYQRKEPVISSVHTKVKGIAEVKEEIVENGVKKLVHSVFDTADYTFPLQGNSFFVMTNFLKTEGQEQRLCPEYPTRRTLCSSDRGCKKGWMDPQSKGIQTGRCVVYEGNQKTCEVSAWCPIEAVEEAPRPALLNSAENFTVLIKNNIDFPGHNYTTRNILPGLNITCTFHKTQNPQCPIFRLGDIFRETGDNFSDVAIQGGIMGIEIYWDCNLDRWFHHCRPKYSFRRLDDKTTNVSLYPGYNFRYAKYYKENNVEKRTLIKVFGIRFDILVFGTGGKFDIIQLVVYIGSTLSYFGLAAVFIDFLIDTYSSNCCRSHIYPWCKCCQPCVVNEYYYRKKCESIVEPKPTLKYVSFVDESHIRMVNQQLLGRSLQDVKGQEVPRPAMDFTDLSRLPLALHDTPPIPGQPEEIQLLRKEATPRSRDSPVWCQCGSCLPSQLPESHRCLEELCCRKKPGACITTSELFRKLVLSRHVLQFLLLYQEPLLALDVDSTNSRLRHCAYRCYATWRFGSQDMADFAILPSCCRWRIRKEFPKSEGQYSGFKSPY

[2] = target: T1, P2X7; test: Radioligand binding, tritiated A-804598, human P2X7-1321N1 cell membranes; conditions: 1 hour at 4° C.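 Further: ki obtained from the binding IC50 after correction for tracer concentration and tracer affinity.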
Procedure: On the day of the experiment, cell membrane preparations were made according to standard published methods. […] The assay was terminated by filtration (GF/B filters pre-soaked with 0.3% PEI) and washed with washing buffer (Tris-HCl 50 mM). The IC50 generated in the binding assay was corrected for tracer concentration and affinity of the tracer to derive at the affinity (Ki) of the test compounds.

[3] = target: T1, P2X7; test: Ca2+ flux (FLIPR) in 1321N1 cells expressing recombinant human P2X7 channel; format: cell-based; conditions: 250 μM BzATP;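 further: Calcium-4 dye-loaded cells exposed to compound for 30 min before agonist addition, fluorescence change read 180 s after agonist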
[4] = target: rat P2X7 (Rattus norvegicus (Rat), UniProt Q64663); test: Ca2+ flux (FLIPR) in 1321N1 cells expressing recombinant rat P2X7 channel; format: cell-based; conditions: 250 μM BzATP;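 further: Calcium-4 dye fluorescence change read 180 s after agonist addition, following 30 min cell preincubation with test compound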
Chain of rat P2X7 (Q64663 whole entry): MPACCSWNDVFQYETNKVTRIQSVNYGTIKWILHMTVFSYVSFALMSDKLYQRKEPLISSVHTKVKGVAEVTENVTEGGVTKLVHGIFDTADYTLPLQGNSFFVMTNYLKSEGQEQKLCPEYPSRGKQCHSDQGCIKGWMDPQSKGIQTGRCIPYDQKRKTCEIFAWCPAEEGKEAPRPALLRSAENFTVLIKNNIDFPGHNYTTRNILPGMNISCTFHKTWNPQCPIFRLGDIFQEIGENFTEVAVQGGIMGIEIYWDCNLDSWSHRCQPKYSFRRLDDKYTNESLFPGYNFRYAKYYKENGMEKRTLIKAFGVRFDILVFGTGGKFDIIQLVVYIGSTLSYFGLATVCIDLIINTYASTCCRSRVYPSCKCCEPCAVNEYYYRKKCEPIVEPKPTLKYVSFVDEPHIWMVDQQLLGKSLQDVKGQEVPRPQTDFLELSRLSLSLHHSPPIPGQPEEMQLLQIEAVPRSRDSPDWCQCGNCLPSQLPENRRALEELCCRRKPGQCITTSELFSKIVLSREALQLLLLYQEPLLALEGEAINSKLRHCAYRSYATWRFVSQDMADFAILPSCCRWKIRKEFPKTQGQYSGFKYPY

Compound | PBMC 10 μM (% control) [1] | Ki [2] | IC50 [3] | IC50 [4] | PBMC 1 μM (% control) [1]
C[C@H]1Cc2c(nnn2-c2cc(F)ccn2)CN1C(=O)c1cccc(C(F)(F)F)c1Cl (single isomer, unassigned) [Example 199, (6S*)-5-{[2-Chloro-3-(trifluoromethyl)phenyl]carbonyl}-1-(4-fluoropyridin-2-yl)-6-methyl-4,5,6,7-tetrahydro-1H-[1,2,3]triazolo[4,5-c]pyridine] | 0.0 % control | 39.8 nM | 8.6 nM |  | 
Cc1nc2c(n1-c1ccccc1)CCN(C(=O)c1cccc(Cl)c1Cl)C2 [Example 331, (2,3-dichlorophenyl)(2-methyl-1-phenyl-6,7-dihydro-1H-imidazo[4,5-c]pyridin-5(4H)-yl)methanone] | −11.0 % control | 178 nM | 148 nM |  | 
Cn1nc(-c2cccnc2)c2c1CN(C(=O)c1cccc(C(F)(F)F)c1Cl)CC2 [Example 108, 6-{[2-Chloro-3-(trifluoromethyl)phenyl]carbonyl}-1-methyl-3-pyridin-3-yl-4,5,6,7-tetrahydro-1H-pyrazolo[3,4-c]pyridine] |  | 100 nM |  | 794 nM | 1.1 % control
CC1c2ncn(-c3ccc(F)cn3)c2CCN1C(=O)c1ccc(F)c(Cl)c1Cl (stereo not shown) [Example 261, (2,3-dichloro-4-fluorophenyl)(1-(5-fluoropyridin-2-yl)-4-methyl-6,7-dihydro-1H-imidazo[4,5-c]pyridin-5(4H)-yl)methanone] | −3.1 % control | 36.3 nM | 19.4 nM |  | 
CCC1c2ncn(-c3cnccn3)c2CCN1C(=O)c1cccc(C(F)(F)F)c1Cl (stereo not shown) [Example 15, (2-Chloro-3-(trifluoromethyl)phenyl)(4-ethyl-1-(pyrazin-2-yl)-6,7-dihydro-1H-imidazo[4,5-c]pyridin-5(4H)-yl)methanone] |  | 158 nM | 87.5 nM |  | 9.1 % control
O=C(c1cccc(C(F)(F)F)c1Cl)N1CCc2c(-c3ccc(F)cc3)n[nH]c2C1 [Example 110, 6-{[2-Chloro-3-(trifluoromethyl)phenyl]carbonyl}-3-(4-fluorophenyl)-4,5,6,7-tetrahydro-2H-pyrazolo[3,4-c]pyridine] |  | 182 nM | 10 nM |  | −15.1 % control
CC1Cc2c(nnn2-c2cc(F)ccn2)CN1C(=O)c1cccc(C(F)(F)F)c1Cl (stereo not shown) [Example 176, (2-Chloro-3-(trifluoromethyl)phenyl)(1-(4-fluoropyridin-2-yl)-6-methyl-6,7-dihydro-1H-[1,2,3]triazolo[4,5-c]pyridin-5(4H)-yl)methanone] | 7.3 % control | 31.6 nM | 8 nM |  | 
O=C(c1cccc(C(F)(F)F)c1F)N1CCc2c(nc(C(F)(F)F)n2-c2ccccc2)C1 [Example 57, 5-{[2-Fluoro-3-(trifluoromethyl)phenyl]carbonyl}-1-phenyl-2-(trifluoromethyl)-4,5,6,7-tetrahydro-1H-imidazo[4,5-c]pyridine] | 46.7 % control | 794 nM | 718 nM |  | 
Cc1c(C(=O)N2CCc3c(ncn3-c3ccc(F)cn3)C2C)cccc1C(F)(F)F (stereo not shown) [Example 263, (1-(5-fluoropyridin-2-yl)-4-methyl-6,7-dihydro-1H-imidazo[4,5-c]pyridin-5(4H)-yl)(2-methyl-3-(trifluoromethyl)phenyl)methanone] | −1.6 % control | 55 nM | 16.1 nM |  | 
O=C(c1cccc(Cl)c1Cl)N1CCc2c(ncn2-c2ccn[nH]2)C1 [Example 60, 5-[(2,3-Dichlorophenyl)carbonyl]-1-(1H-pyrazol-5-yl)-4,5,6,7-tetrahydro-1H-imidazo[4,5-c]pyridine] | 8.4 % control | 100 nM | 55.7 nM |  | 
CC1c2ncn(-c3ncccc3F)c2CCN1C(=O)c1cccc(C(F)(F)F)c1Cl (stereo not shown) [Example 21, (2-Chloro-3-(trifluoromethyl)phenyl)(1-(3-fluoropyridin-2-yl)-4-methyl-6,7-dihydro-1H-imidazo[4,5-c]pyridin-5(4H)-yl)methanone] | 1.6 % control | 126 nM | 78.5 nM |  | 
Cn1nc(-c2ccccc2)c2c1CN(C(=O)c1cccc(Cl)c1Cl)CC2 [Example 103, 6-[(2,3-Dichlorophenyl)carbonyl]-1-methyl-3-phenyl-4,5,6,7-tetrahydro-1H-pyrazolo[3,4-c]pyridine] |  | 275 nM | 392 nM |  | 56.0 % control
O=C(c1cccc(C(F)(F)F)c1Cl)N1CCc2c(nnn2-c2cccc(F)n2)C1 [Example 135, (2-Chloro-3-(trifluoromethyl)phenyl)(1-(6-fluoropyridin-2-yl)-6,7-dihydro-1H-[1,2,3]triazolo[4,5-c]pyridin-5(4H)-yl)methanone] | 1.7 % control | 100 nM | 48.2 nM |  | 
O=C(c1cccc(C(F)(F)F)c1Cl)N1CCc2c(nnn2-c2ncc(F)cn2)C1 [Example 64, 5-{[2-Chloro-3-(trifluoromethyl)phenyl]carbonyl}-1-(5-fluoropyrimidin-2-yl)-4,5,6,7-tetrahydro-1H-[1,2,3]triazolo[4,5-c]pyridine] | −9.2 % control | 31.6 nM | 14.3 nM |  | 
C[C@H]1Cc2c(nnn2-c2ncc(F)cn2)CN1C(=O)c1ccc(Cl)c(F)c1Cl (single isomer, unassigned) [Example 218, (6S*)-5-[(2,4-Dichloro-3-fluorophenyl)carbonyl]-1-(5-fluoropyrimidin-2-yl)-6-methyl-4,5,6,7-tetrahydro-1H-[1,2,3]triazolo[4,5-c]pyridine] | 6.1 % control | 2.5 nM |  |  | 
O=C(c1cccc(C(F)(F)F)c1Cl)N1CCc2c(ncn2-c2ccccn2)C1 [Example 1, (2-Chloro-3-(trifluoromethyl)phenyl)(1-(pyridin-2-yl)-6,7-dihydro-1H-imidazo[4,5-c]pyridin-5(4H)-yl)methanone] |  | 75.9 nM | 6.1 nM |  | 11.5 % control
Cc1c(C(=O)N2CCc3c(ncn3-c3ccc(F)cn3)C2)cccc1C(F)(F)F [Example 312, (1-(5-fluoropyridin-2-yl)-6,7-dihydro-1H-imidazo[4,5-c]pyridin-5(4H)-yl)(2-methyl-3-(trifluoromethyl)phenyl)methanone] | 9.5 % control | 39.8 nM | 157 nM |  | 
C[C@@H]1Cc2c(nnn2-c2cc(F)ccn2)CN1C(=O)c1cccc(C(F)(F)F)c1Cl (single isomer, unassigned) [Example 198, (6R*)-5-{[2-Chloro-3-(trifluoromethyl)phenyl]carbonyl}-1-(4-fluoropyridin-2-yl)-6-methyl-4,5,6,7-tetrahydro-1H-[1,2,3]triazolo[4,5-c]pyridine] | 1.3 % control | 631 nM | 180 nM |  | 
O=C(c1cccc(C(F)(F)F)c1Cl)N1CCc2c(nnn2-c2cnccn2)C1c1ccccc1 (stereo not shown) [Example 77, 5-{[2-Chloro-3-(trifluoromethyl)phenyl]carbonyl}-4-phenyl-1-pyrazin-2-yl-4,5,6,7-tetrahydro-1H-[1,2,3]triazolo[4,5-c]pyridine] |  | 398 nM |  | 6.3 nM | 31.7 % control
O=C(c1cccc(C(F)(F)F)c1Cl)N1CCc2c(ncn2-c2cnccn2)C1 [Example 6, (2-Chloro-3-(trifluoromethyl)phenyl)(1-(pyrazin-2-yl)-6,7-dihydro-1H-imidazo[4,5-c]pyridin-5(4H)-yl)methanone] |  | 42.7 nM | 9.4 nM |  | 14.3 % control
CC1Cc2c(nnn2-c2ncc(F)cn2)CN1C(=O)c1ccc(Cl)c(F)c1Cl (stereo not shown) [Example 216, 5-[(2,4-Dichloro-3-fluorophenyl)carbonyl]-1-(5-fluoropyrimidin-2-yl)-6-methyl-4,5,6,7-tetrahydro-1H-[1,2,3]triazolo[4,5-c]pyridine] | 0.6 % control | 12.6 nM |  |  | 
C[C@H]1c2nnn(-c3ccccn3)c2CCN1C(=O)c1ccc(F)c(Cl)c1Cl (single isomer, unassigned) [Example 142, (S*)-(2,3-Dichloro-4-fluorophenyl)(4-methyl-1-(pyridin-2-yl)-6,7-dihydro-1H-[1,2,3]triazolo[4,5-c]pyridin-5(4H)-yl)methanone] | 33.8 % control | 10 nM | 2 nM |  | 
Cn1nc2c(c1-c1ccncc1)CCN(C(=O)c1cccc(Cl)c1Cl)C2 [Example 328, (2,3-dichlorophenyl)(2-methyl-3-(pyridin-4-yl)-4,5-dihydro-2H-pyrazolo[3,4-c]pyridin-6(7H)-yl)methanone] |  |  | > 10000 nM | > 10000 nM | 88.0 % control
CC1c2nnn(-c3cncnc3)c2C=CN1C(=O)c1cccc(C(F)(F)F)c1Cl (stereo not shown) [Example 236, (2-Chloro-3-(trifluoromethyl)phenyl)(4-methyl-1-(pyrimidin-5-yl)-1H-[1,2,3]triazolo[4,5-c]pyridin-5(4H)-yl)methanone] | 9.3 % control |  | 1190 nM | > 10000 nM | 
CC1c2nnn(-c3ncco3)c2CCN1C(=O)c1cccc(C(F)(F)F)c1Cl (stereo not shown) [Example 250] | −1.3 % control | 39.8 nM | 8.6 nM |  | 
O=C(c1ccc(F)cc1Cl)N1CCc2c(nnn2-c2ccccn2)C1 [Example 117, (2-Chloro-4-fluorophenyl)(1-(pyridin-2-yl)-6,7-dihydro-1H-[1,2,3]triazolo[4,5-c]pyridin-5(4H)-yl)methanone] | 4.3 % control |  | 2220 nM | > 10000 nM | 
